In paper PMC4445002, “Efficient inhibition of tumor angiogenesis and growth by a synthetic peptide blocking S100A4-methionine aminopeptidase 2 interaction” (Molecular Therapy. Methods & Clinical Development, 2015):

How the values were obtained:
PC-3M-Luc tumors = assay: Tumor angiogenesis (microvessel density, CD31 staining) in PC-3M-Luc xenografts; type: in vivo, human tumor in athymic nude mice; conditions: single intratumoral injection of 100 μg peptide in atelocollagen, tumors dissected three days after
Procedure: Figure 5 Inhibition of tumor angiogenesis and tumor growth of human prostate cancer cells by the NBD peptide. The peptide/atelocollagen was injected into the subcutaneous tumors on day 3 after inoculation of PC-3M-Luc cells. Atelocollagen alone was injected as controls. (a) Microvessel density. Anti-CD31-antibody staining was used to detect angiogenesis. Arrows show microvessels. The images were digitally processed for assessment of angiogenesis. (b) Inhibition of tumor growth by peptide delivery in vivo. Representative bioluminescent images of nude are shown. L, tumors treated with the CBD peptide; R, tumors treated with the NBD peptide. (c) The photon count of the bioluminescence is shown. Data represent the mean ± SD. The total number of animals is 7 in two independent experiments.
The peptide/atelocollagen complex was prepared by mixing equal volumes of atelocollagen (0.1% in PBS at pH 7.4) and peptide solution (1 mg/ml) with rotation for 30 minutes at 4 °C. The final concentration of atelocollagen was 0.5%. […] Tumor growth was assessed through peptide/atelocollagen complex administration to mice 3 days after the subcutaneous inoculation of PC-3M-Luc cells. Mice were monitored by bioluminescent imaging 14 days after the injection of the peptide/atelocollagen complex. […]

PC-3M-Luc cells = assay: PC-3M-Luc cell growth in vitro; type: cell-based, human
Procedure: (§1) Caspase3/7 assays was performed with Apo-ONE Caspase-3/7 Assay
(§2) Reagent (Promega). No significant changes are observed.
F i g . […]
(§3) PC-3M-Luc cells were treated with atelocollagen alone or the NBD peptide/atelocollagen complex in vitro, and their growth rate was monitored.
(§4) The values represent cell growth rate relative to that of control cells that is […]
(§5) MSS31 cells were incubated with the peptide/atelocollagen complexes.
(§6) Isolation of total RNA and subsequent qRT-PCR analysis were carried out as described previously (30). The GAPDH gene was used as an internal control.
(§7) (a) Proangiogenic genes in NBD and CBD peptides-treated cells. (b)
(§8) Antiangiogenic genes in NBD and CBD peptides-treated cells.

[1] = system: vinculin, integrin β1 and FAK in MSS31 cells; assay: Expression of vinculin, integrin β1 and FAK by western blot; type: cell-based, mouse; conditions: total cell lysates, vs control cells; 5 μg/well, 18 hours
Procedure: Figure 7 Stimulation of the formation of focal contacts by the NBD peptide. MSS31 cells incubated with atelocollagen alone or the peptide/atelocollagen complexes were subjected to immunofluorescent staining and western blot analysis. (a) Formation of focal adhesions. The cells were immunostained with antivinculin or anti-integrin β1 antibody followed by Alexa Fluor 488-conjugated secondary antibody. F-actin was visualized with Atto 647N-Phalloidin. Nuclei were stained with DAPI. Scale bars: 50 μm. (b) Western blot analysis of focal adhesion proteins. Total cellular proteins were subjected to immunoblot analysis. (c) Relative expression level of vinculin (VCN), integrin β1 (ITGβ1) and p-FAK. The band intensity of VCN and ITGβ1 and p-FAK relative to that of β-actin and total FAK, respectively, was measured using ImageJ software and normalized to control cells.
MSS31 cells cultured in six-well plates were incubated with 5 μg/well of the NBD or the CBD peptide/atelocollagen complex or atelocollagen alone for 18 hours and were lysed in M-PER Mammarian Protein Extraction Reagent (Thermo Fisher Scientific, Waltham, MA) containing complete, EDTA-free, EASYpack (Roche Applied Science, Penzberg, Upper Bavaria, Germany) and Halt Phosphatase Inhibitor Cocktail (Thermo Fisher Scientific). The lysates was used for immunoblot analysis. […]

[2] = system: NMIIA (Ser1943) in MSS31 cells; assay: NMIIA Ser1943 phosphorylation by western blot; type: cell-based, mouse; conditions: 5 μg/well, 18 hours
Procedure: Figure 6 Stimulation of NMIIA phosphorylation and filament assembly by the NBD peptide. MSS31 cells incubated with atelocollagen alone or the peptide/atelocollagen complexes were subjected to western blot analysis and immunofluorescent staining. (a) Western blot analysis of NMIIA phosphorylation. Total cellular proteins were subjected to immunoblot analysis. The band intensity of p-NMIIA relative to that of total NMIIA was measured using ImageJ software and normalized to control cells. (b) NMIIA assembly. MSS31 cells were simultaneously incubated with rabbit polyclonal anti-S100A4 antibody and mouse monoclonal anti-NMIIA antibody followed by Alexa Fluor 488-conjugated goat antirabbit IgG and Alexa Fluor 594-conjugated goat antimouse IgG. Nuclei were stained with DAPI. Scale bars: 50 μm. (c) Blockade of S100A4-NMIIA interaction by the NBD peptide. MSS31 cells were immunostained as in a. White arrows and yellow arrows indicate colocalized areas and independently localized areas of S100A4 and NMIIA, respectively. Bars: 20 μm. TEXT PRINTED IN THE PICTURE: (a) NBD: p-NMIIA/total NMIIA: 1.78 | (a) CBD: p-NMIIA/total NMIIA: 0.66 […]

[3] = system: angiogenesis-related genes in MSS31 cells; assay: Expression of angiogenesis-related genes by qRT-PCR; type: cell-based, mouse; conditions: atelocollagen complex, retn, fgf18, aqp1, map3k5, thy1, foxo6, hs6st1, cdkn1a, thbs1, spry4
Procedure: Therefore, an alternative action mechanism of the NBD peptide would be the modulation of the expression of these angiogenesis-related genes.
as §1, §2
F i g . […]
as §3, §4, §5, §6, §7, §8

## NBD: N-terminal 39 amino acid sequence of SBD, from Arg170 to Ileu208; corresponding to MetAP2 (170–208) (REAAEAHRQVRKYVMSWIKPGMTMIEICEKLEDCSRKLI)
PC-3M-Luc tumors
  tumor angiogenesis: severely impaired
PC-3M-Luc cells; discussion wording, p53-null cells
  proliferation of PC-3 cells: did not influence the proliferation of PC-3 cells
PC-3M-Luc cells; in vitro, NBD peptide/atelocollagen complex, vs untreated, Supplementary Figure S6
  growth rate of PC-3M-Luc cells: comparable growth rate to that of untreated cells
[1]
  expression of vinculin, integrin β1 and FAK: no significant difference in the expressions of vinculin, integrin β1 and FAK
[2]; atelocollagen complex
  Ser1943 phosphorylation of NMIIA: enhanced Ser1943 phosphorylation of NMIIA
[2]; band intensity, normalized to control cells (atelocollagen alone)
  p-NMIIA/total NMIIA: 1.78
[3]
  expression of angiogenesis-related genes: could not detect any alteration of the expression of these genes
